In one assay the target is T1, Aminopeptidase N (Sus scrofa, UniProt P15145).
T1 sequence (P15145 whole entry): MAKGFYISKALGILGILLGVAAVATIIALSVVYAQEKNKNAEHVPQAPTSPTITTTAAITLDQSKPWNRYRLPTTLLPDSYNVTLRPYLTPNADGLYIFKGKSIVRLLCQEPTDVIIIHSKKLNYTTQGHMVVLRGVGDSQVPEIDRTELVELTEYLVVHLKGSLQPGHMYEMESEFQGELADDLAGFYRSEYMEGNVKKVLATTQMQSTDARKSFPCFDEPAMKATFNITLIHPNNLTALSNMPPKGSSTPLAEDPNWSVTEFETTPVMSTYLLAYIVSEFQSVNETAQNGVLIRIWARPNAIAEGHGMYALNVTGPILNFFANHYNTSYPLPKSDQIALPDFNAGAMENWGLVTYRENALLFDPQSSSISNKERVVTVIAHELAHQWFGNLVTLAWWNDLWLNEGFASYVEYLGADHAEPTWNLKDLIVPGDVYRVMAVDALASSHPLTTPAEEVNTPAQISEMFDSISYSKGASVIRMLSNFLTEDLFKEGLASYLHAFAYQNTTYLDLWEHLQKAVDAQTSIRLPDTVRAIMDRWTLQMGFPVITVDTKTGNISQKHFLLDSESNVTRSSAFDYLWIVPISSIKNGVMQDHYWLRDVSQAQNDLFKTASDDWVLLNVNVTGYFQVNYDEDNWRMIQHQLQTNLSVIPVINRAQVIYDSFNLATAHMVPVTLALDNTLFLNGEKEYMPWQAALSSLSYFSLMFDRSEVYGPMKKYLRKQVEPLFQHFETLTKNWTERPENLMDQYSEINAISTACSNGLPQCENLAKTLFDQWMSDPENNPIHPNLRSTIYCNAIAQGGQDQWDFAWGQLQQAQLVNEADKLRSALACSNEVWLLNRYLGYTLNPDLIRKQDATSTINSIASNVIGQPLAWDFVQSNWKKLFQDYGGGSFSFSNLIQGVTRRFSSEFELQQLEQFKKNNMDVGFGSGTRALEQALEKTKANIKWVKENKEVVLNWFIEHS
In words: Inhibition of pig kidney microsomal aminopeptidase N after 30 mins by UV-VIS spectrophotometry.

For assay [1], the target named is 72 kDa type IV collagenase (Homo sapiens, UniProt P08253). Briefly: Inhibition of MMP2.
72 kDa type IV collagenase, sequence (P08253 whole entry): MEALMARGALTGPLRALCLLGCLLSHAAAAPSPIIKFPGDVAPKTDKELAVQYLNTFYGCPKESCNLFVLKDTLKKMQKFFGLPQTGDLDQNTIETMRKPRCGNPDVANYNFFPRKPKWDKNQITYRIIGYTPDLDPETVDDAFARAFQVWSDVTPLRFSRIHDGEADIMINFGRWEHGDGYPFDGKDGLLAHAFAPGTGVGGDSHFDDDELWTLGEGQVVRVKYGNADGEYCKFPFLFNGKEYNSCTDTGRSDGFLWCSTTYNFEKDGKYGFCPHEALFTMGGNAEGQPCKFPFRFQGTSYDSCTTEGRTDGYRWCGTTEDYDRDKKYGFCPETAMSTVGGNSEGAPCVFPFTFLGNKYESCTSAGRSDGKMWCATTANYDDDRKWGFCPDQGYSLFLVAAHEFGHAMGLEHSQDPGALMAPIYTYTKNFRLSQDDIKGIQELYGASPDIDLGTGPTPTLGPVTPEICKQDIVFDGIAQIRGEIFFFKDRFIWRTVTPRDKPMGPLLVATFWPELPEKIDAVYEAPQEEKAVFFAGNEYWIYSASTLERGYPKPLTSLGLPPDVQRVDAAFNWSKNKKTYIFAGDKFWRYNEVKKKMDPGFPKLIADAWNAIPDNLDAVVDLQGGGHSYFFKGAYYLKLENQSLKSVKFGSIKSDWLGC

Molecules are shown by their SMILES.

Our source for the IC50 values is ChEMBL document CHEMBL1153827, “Novel aminopeptidase N inhibitors derived from antineoplaston AS2-5 (Part II)” (Bioorg Med Chem, 2009).

By IC50 is commonly meant the concentration needed to halve the response being measured.

Regarding `COC(=O)CC(NC(=O)CC[C@H](NC(=O)/C=C/c1ccc(OC)c(OC)c1)C(=O)NC(CC(=O)OC)C(=O)OC)C(=O)OC` (stereo not given in full), the IC50 at Aminopeptidase N (read-out: IC50) is 213 µM; in assay [1] (read-out: IC50) it was 341 µM.
On to `COc1ccc(/C=C/C(=O)N[C@@H](CCC(=O)O)C(=O)Nc2cc(F)cc(F)c2)cc1OC`, for which the IC50 on Aminopeptidase N (read-out: IC50) amounted to 98.6 µM; in assay [1] (read-out: IC50), 116 µM.
With `COc1ccc(/C=C/C(=O)N[C@@H](CCC(=O)O)C(=O)Nc2ccccc2F)cc1OC`, the IC50 at Aminopeptidase N (read-out: IC50) was determined as 56.8 µM; in assay [1] (read-out: IC50) it was 71.4 µM.
Taken in the same sequence, the figures for `COc1ccc(/C=C/C(=O)N[C@@H](CCC(=O)O)C(=O)Nc2ccccc2Cl)cc1OC` were 38.3 µM and 64.3 µM.
Regarding `COc1ccc(/C=C/C(=O)N[C@@H](CCC(=O)O)C(=O)Nc2cccc(Cl)c2)cc1OC`, the values for the IC50 (at Aminopeptidase N (read-out: IC50); in assay [1] (read-out: IC50)) were 80.5 µM and 121 µM, respectively.
Consider `COc1ccc(/C=C/C(=O)N[C@@H](CCC(=O)O)C(=O)Nc2ccc(C)cc2)cc1OC`, for which the IC50 at Aminopeptidase N (read-out: IC50) was 20.7 µM; in assay [1] (read-out: IC50), 37.8 µM.
Turning to `COc1ccc(/C=C/C(=O)N[C@@H](CCC(=O)O)C(=O)Nc2ccc(F)cc2)cc1OC`, the IC50 on Aminopeptidase N (read-out: IC50) was 23.4 µM; in assay [1] (read-out: IC50) it was 47.6 µM.
`COc1ccc(/C=C/C(=O)N[C@@H](CCC(=O)Nc2cc(F)cc(F)c2)C(=O)Nc2cc(F)cc(F)c2)cc1OC`: the IC50 entry (against Aminopeptidase N; in assay [1]) was “Not Active” each time.
`COc1ccc(/C=C/C(=O)N[C@@H](CCC(=O)Nc2ccc(C)cc2)C(=O)Nc2ccc(C)cc2)cc1OC`: the IC50 is 335 µM at Aminopeptidase N (read-out: IC50) and 398 µM in assay [1] (read-out: IC50).
In the case of `COc1ccc(/C=C/C(=O)N[C@@H](CCC(=O)Nc2ccc(F)cc2)C(=O)Nc2ccc(F)cc2)cc1OC`, the IC50 at Aminopeptidase N (read-out: IC50) stood at 371 µM; in assay [1] (read-out: IC50), 368 µM.
As for `COC(=O)CNC(=O)[C@H](CCC(=O)O)NC(=O)/C=C/c1ccc(OC)c(OC)c1`, the half-inhibitory concentration (IC50) was 50.4 µM at Aminopeptidase N (read-out: IC50) and 79.6 µM in assay [1] (read-out: IC50).
As for `COC(=O)C(C)NC(=O)[C@H](CCC(=O)O)NC(=O)/C=C/c1ccc(OC)c(OC)c1` (stereo not given in full), the IC50 at Aminopeptidase N (read-out: IC50) was determined as 55.1 µM; in assay [1] (read-out: IC50), 83.2 µM.
With `COc1ccc(/C=C/C(=O)N[C@@H](CCC(=O)O)C(=O)NCC(C)C)cc1OC`, the IC50 at Aminopeptidase N (read-out: IC50) is 207 µM; in assay [1] (read-out: IC50), 256 µM.
For the molecule `COc1ccc(/C=C/C(=O)N[C@@H](CCC(=O)Nc2ccc(Cl)cc2)C(=O)Nc2ccc(Cl)cc2)cc1OC`, the IC50 at Aminopeptidase N (read-out: IC50) is 405 µM; in assay [1] (read-out: IC50) it was 471 µM.
On to `COc1ccc(/C=C/C(=O)N[C@@H](CCC(=O)Nc2ccc(Br)cc2)C(=O)Nc2ccc(Br)cc2)cc1OC`, for which the IC50 at Aminopeptidase N (read-out: IC50) was 578 µM; in assay [1] it was “Not Active”.
On to `COc1ccc(/C=C/C(=O)N[C@@H](CCC(=O)Nc2ccccc2F)C(=O)Nc2ccccc2F)cc1OC`, for which the IC50 was 405 µM at Aminopeptidase N (read-out: IC50) and 471 µM in assay [1] (read-out: IC50).
Taken in the same sequence, the figures for `COc1ccc(/C=C/C(=O)N[C@@H](CCC(=O)O)C(=O)NCc2ccccc2)cc1OC` were 178 µM and 236 µM.
Taken in the same sequence, the figures for `CNC(=O)[C@H](CCC(=O)O)NC(=O)/C=C/c1ccc(OC)c(OC)c1` were 126 µM and 159 µM.
As for `CCNC(=O)[C@H](CCC(=O)O)NC(=O)/C=C/c1ccc(OC)c(OC)c1`, the IC50 at Aminopeptidase N (read-out: IC50) was found to be 184 µM; in assay [1] (read-out: IC50), 211 µM.
Take `CCCNC(=O)[C@H](CCC(=O)O)NC(=O)/C=C/c1ccc(OC)c(OC)c1`: the IC50 at Aminopeptidase N (read-out: IC50) was 237 µM; in assay [1] (read-out: IC50), 284 µM.
For `COC(=O)C(NC(=O)[C@H](CCC(=O)O)NC(=O)/C=C/c1ccc(OC)c(OC)c1)C(C)C` (stereo not given in full), the IC50 on Aminopeptidase N (read-out: IC50) amounted to 69.2 µM; in assay [1] (read-out: IC50) it was 76.8 µM.
With `COc1ccc(/C=C/C(=O)N[C@@H](CCC(=O)O)C(=O)Nc2ccc(Br)cc2)cc1OC`, the IC50 on Aminopeptidase N (read-out: IC50) is 58.1 µM; in assay [1] (read-out: IC50), 71.2 µM.
On to `COc1ccc(/C=C/C(=O)N[C@@H](CCC(=O)O)C(=O)Nc2ccc(Cl)cc2)cc1OC`, for which the IC50 on Aminopeptidase N (read-out: IC50) amounted to 34.5 µM; in assay [1] (read-out: IC50) it was 59.9 µM.
For the molecule `COC(=O)CC(NC(=O)[C@H](CCC(=O)O)NC(=O)/C=C/c1ccc(OC)c(OC)c1)C(=O)OC` (stereo not given in full), the IC50 was found to be 60.5 µM at Aminopeptidase N (read-out: IC50) and 101 µM in assay [1] (read-out: IC50).
On to `COC(=O)C(Cc1ccc(F)cc1)NC(=O)[C@H](CCC(=O)O)NC(=O)/C=C/c1ccc(OC)c(OC)c1` (stereo not given in full), for which the IC50 amounted to 43.7 µM at Aminopeptidase N (read-out: IC50) and 76.5 µM in assay [1] (read-out: IC50).
